Each compound was assayed on Scirpus juncoides (assay: Test Example 2: herbicidal effect test by treatment during growing period in paddy rice cultivation (seven days after seeding)). Settings: 120 g/10a active ingredient, assessed 14 days after treatment, dry weight vs untreated area.
Assay type: in vivo
Outline: (§1)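 Post-emergence paddy water application: compounds were formulated as emulsions, diluted and dropped into flooded pots seven days after sowing at a rate equivalent to 120 g per 10 ares. Efficacy was taken as dry-weight reduction relative to untreated controls after 14 days.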
In the case of CCCC(C)n1oc(=O)c(Cc2ccccc2NS(=O)(=O)C(F)(F)F)c1C (centres unmarked) [Compound 1-109], the “Herbicidal rate (%) Scirpus juncoides” value is reported as 90%.
For CCC(C)n1oc(=O)c(Cc2ccccc2N(S(C)(=O)=O)S(=O)(=O)C(F)(F)F)c1C (centres unmarked) [Compound 1-890], the “Herbicidal rate (%) Scirpus juncoides” value was 90%.

Each compound was assayed on Echinochloa crus-galli in the same assay as above. Settings: 120 g/10a active ingredient, assessed 14 days after treatment, dry weight vs untreated area.
Assay type: in vivo
Outline: as §1
With CCCC(C)n1oc(=O)c(Cc2ccccc2NS(=O)(=O)C(F)(F)F)c1C (centres unmarked) [Compound 1-109] the “Herbicidal rate (%) Echinochloa crus-galli” value was 90%.
With CCC(C)n1oc(=O)c(Cc2ccccc2N(S(C)(=O)=O)S(=O)(=O)C(F)(F)F)c1C (centres unmarked) [Compound 1-890] the “Herbicidal rate (%) Echinochloa crus-galli” value was 90%.

The compounds below were run on broad leaf weeds (Lindernia pyxidaria and Monochoria vaginalis) in the same assay as above. Settings: Lindernia pyxidaria, 120 g/10a active ingredient, assessed 14 days after treatment, dry weight vs untreated area.
Assay type: in vivo
Outline: as §1
CCCC(C)n1oc(=O)c(Cc2ccccc2NS(=O)(=O)C(F)(F)F)c1C (centres unmarked) [Compound 1-109] was tested, and the “Herbicidal rate (%) Lindernia pyxidaria” value was 70%.
With CCC(C)n1oc(=O)c(Cc2ccccc2N(S(C)(=O)=O)S(=O)(=O)C(F)(F)F)c1C (centres unmarked) [Compound 1-890] the “Herbicidal rate (%) Lindernia pyxidaria” value was 90%.

Same assay, conditions: Monochoria vaginalis, 120 g/10a active ingredient, assessed 14 days after treatment, dry weight vs untreated area
With CCCC(C)n1oc(=O)c(Cc2ccccc2NS(=O)(=O)C(F)(F)F)c1C (centres unmarked) [Compound 1-109] the “Herbicidal rate (%) Monochoria vaginalis” value was 90%.
With CCC(C)n1oc(=O)c(Cc2ccccc2N(S(C)(=O)=O)S(=O)(=O)C(F)(F)F)c1C (centres unmarked) [Compound 1-890] the “Herbicidal rate (%) Monochoria vaginalis” value was 90%.

The compounds below were run on Scirpus juncoides (assay: Test Example 1: herbicidal effect test by treatment of rice paddy soil (immediately after seeding)). Settings: 120 g/10a active ingredient, dry weight vs untreated area, 14 days after treatment.
Assay type: in vivo
Outline: (§2)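 Values are herbicidal rates (%) derived from average plant dry weight in treated versus untreated pots 14 days after treatment, run in duplicate. Treatment was a water-diluted emulsion dropped into flooded paddy soil right after sowing, at 120 g active ingredient per 10 ares.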
With CCCC(C)n1oc(=O)c(Cc2ccccc2NS(=O)(=O)C(F)(F)F)c1C (centres unmarked) [Compound 1-109] the “Herbicidal rate (%) Scirpus juncoides” value was 100%.
With CCC(C)n1oc(=O)c(Cc2ccccc2N(S(C)(=O)=O)S(=O)(=O)C(F)(F)F)c1C (centres unmarked) [Compound 1-890] the “Herbicidal rate (%) Scirpus juncoides” value was 90%.

The compounds below were run on Echinochloa crus-galli in the same assay as above. Settings: 120 g/10a active ingredient, dry weight vs untreated area, 14 days after treatment.
Assay type: in vivo
Outline: as §2
In the case of CCCC(C)n1oc(=O)c(Cc2ccccc2NS(=O)(=O)C(F)(F)F)c1C (centres unmarked) [Compound 1-109], the “Herbicidal rate (%) Echinochloa crus-galli” value is reported as 100%.
In the case of CCC(C)n1oc(=O)c(Cc2ccccc2N(S(C)(=O)=O)S(=O)(=O)C(F)(F)F)c1C (centres unmarked) [Compound 1-890], the “Herbicidal rate (%) Echinochloa crus-galli” value is reported as 90%.

These compounds were tested on broad leaf weeds (Lindernia pyxidaria and Monochoria vaginalis) in the same assay as above. Settings: Lindernia pyxidaria, 120 g/10a active ingredient, dry weight vs untreated area, 14 days after treatment.
Assay type: in vivo
Outline: as §2
For CCCC(C)n1oc(=O)c(Cc2ccccc2NS(=O)(=O)C(F)(F)F)c1C (centres unmarked) [Compound 1-109], the “Herbicidal rate (%) Lindernia pyxidaria” value was 100%.
With CCC(C)n1oc(=O)c(Cc2ccccc2N(S(C)(=O)=O)S(=O)(=O)C(F)(F)F)c1C (centres unmarked) [Compound 1-890] the “Herbicidal rate (%) Lindernia pyxidaria” value was 90%.

Same assay, conditions: Monochoria vaginalis, 120 g/10a active ingredient, dry weight vs untreated area, 14 days after treatment
CCCC(C)n1oc(=O)c(Cc2ccccc2NS(=O)(=O)C(F)(F)F)c1C (centres unmarked) [Compound 1-109] was tested, and the “Herbicidal rate (%) Monochoria vaginalis” value was 100%.
CCC(C)n1oc(=O)c(Cc2ccccc2N(S(C)(=O)=O)S(=O)(=O)C(F)(F)F)c1C (centres unmarked) [Compound 1-890] was tested, and the “Herbicidal rate (%) Monochoria vaginalis” value was 90%.

The compounds below were run on southern crabgrass (assay: Test Example 3: herbicidal effect test by treatment of dry field farming soil (one day after seeding)). Settings: 120 g/10a active ingredient, evaluated 14 days after treatment.
Assay type: in vivo
Outline: (§3)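 Dry-field alluvium pots; weed seeds incorporated in top 1 cm; soil spray of diluted emulsion 1 d after seeding, 120 g a.i./10 a in 100 L/10 a. Readout: % reduction of dry weight vs untreated, day 14, duplicates.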
With CCCC(C)n1oc(=O)c(Cc2ccccc2NS(=O)(=O)C(F)(F)F)c1C (centres unmarked) [Compound 1-109] the “herbicidal rate, southern crabgrass” value was 90%.
In the case of CCC(C)n1oc(=O)c(Cc2ccccc2N(S(C)(=O)=O)S(=O)(=O)C(F)(F)F)c1C (centres unmarked) [Compound 1-890], the “herbicidal rate, southern crabgrass” value is reported as 90%.

What follows are compounds tested on Chenopodium album in the same assay as above. Settings: 120 g/10a active ingredient, evaluated 14 days after treatment.
Assay type: in vivo
Outline: as §3
CCCC(C)n1oc(=O)c(Cc2ccccc2NS(=O)(=O)C(F)(F)F)c1C (centres unmarked) [Compound 1-109] was tested, and the “herbicidal rate, Chenopodium album” value was 60%.
For CCC(C)n1oc(=O)c(Cc2ccccc2N(S(C)(=O)=O)S(=O)(=O)C(F)(F)F)c1C (centres unmarked) [Compound 1-890], the “herbicidal rate, Chenopodium album” value was 90%.

What follows are compounds tested on Amaranthus viridis in the same assay as above. Settings: 120 g/10a active ingredient, evaluated 14 days after treatment.
Assay type: in vivo
Outline: as §3
CCCC(C)n1oc(=O)c(Cc2ccccc2NS(=O)(=O)C(F)(F)F)c1C (centres unmarked) [Compound 1-109] was tested, and the “herbicidal rate, Amaranthus viridis” value was 60%.
For CCC(C)n1oc(=O)c(Cc2ccccc2N(S(C)(=O)=O)S(=O)(=O)C(F)(F)F)c1C (centres unmarked) [Compound 1-890], the “herbicidal rate, Amaranthus viridis” value was 90%.

The compounds below were run on Echinochloa crus-galli in the same assay as above. Settings: 120 g/10a active ingredient, evaluated 14 days after treatment.
Assay type: in vivo
Outline: as §3
In the case of CCCC(C)n1oc(=O)c(Cc2ccccc2NS(=O)(=O)C(F)(F)F)c1C (centres unmarked) [Compound 1-109], the “herbicidal rate, Echinochloa crus-galli” value is reported as 90%.
For CCC(C)n1oc(=O)c(Cc2ccccc2N(S(C)(=O)=O)S(=O)(=O)C(F)(F)F)c1C (centres unmarked) [Compound 1-890], the “herbicidal rate, Echinochloa crus-galli” value was 90%.

What follows are compounds tested on southern crabgrass (assay: Test Example 4: herbicidal effect test by treatment of leave and stem in dry field farming (seven days after seeding)). Settings: 120 g/10a active ingredient; emulsion sprayed seven days after seeding; evaluated 14 days after treatment.
Assay type: in vivo
Outline: (§4)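 Duplicate pots were scored 14 days post-spray by dry weight, herbicidal rate = {1 − treated/untreated average dry weight} × 100. The water-diluted emulsion, equivalent to 120 g active ingredient per 10 ares in 100 L, was applied seven days after sowing 20 seeds each into the upper 1 cm of alluvial soil.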
With CCCC(C)n1oc(=O)c(Cc2ccccc2NS(=O)(=O)C(F)(F)F)c1C (centres unmarked) [Compound 1-109] the “herbicidal effect (herbicidal rate), southern crabgrass” value was 80%.
For CCC(C)n1oc(=O)c(Cc2ccccc2N(S(C)(=O)=O)S(=O)(=O)C(F)(F)F)c1C (centres unmarked) [Compound 1-890], the “herbicidal effect (herbicidal rate), southern crabgrass” value was 90%.

What follows are compounds tested on Chenopodium album in the same assay as above. Settings: 120 g/10a active ingredient; emulsion sprayed seven days after seeding; evaluated 14 days after treatment.
Assay type: in vivo
Outline: as §4
In the case of CCCC(C)n1oc(=O)c(Cc2ccccc2NS(=O)(=O)C(F)(F)F)c1C (centres unmarked) [Compound 1-109], the “herbicidal effect (herbicidal rate), Chenopodium album” value is reported as 50%.
With CCC(C)n1oc(=O)c(Cc2ccccc2N(S(C)(=O)=O)S(=O)(=O)C(F)(F)F)c1C (centres unmarked) [Compound 1-890] the “herbicidal effect (herbicidal rate), Chenopodium album” value was 40%.

What follows are compounds tested on Amaranthus viridis in the same assay as above. Settings: 120 g/10a active ingredient; emulsion sprayed seven days after seeding; evaluated 14 days after treatment.
Assay type: in vivo
Outline: as §4
For CCCC(C)n1oc(=O)c(Cc2ccccc2NS(=O)(=O)C(F)(F)F)c1C (centres unmarked) [Compound 1-109], the “herbicidal effect (herbicidal rate), Amaranthus viridis” value was 70%.
For CCC(C)n1oc(=O)c(Cc2ccccc2N(S(C)(=O)=O)S(=O)(=O)C(F)(F)F)c1C (centres unmarked) [Compound 1-890], the “herbicidal effect (herbicidal rate), Amaranthus viridis” value was 40%.

Each compound was assayed on Echinochloa crus-galli in the same assay as above. Settings: 120 g/10a active ingredient; emulsion sprayed seven days after seeding; evaluated 14 days after treatment.
Assay type: in vivo
Outline: as §4
CCCC(C)n1oc(=O)c(Cc2ccccc2NS(=O)(=O)C(F)(F)F)c1C (centres unmarked) [Compound 1-109] was tested, and the “herbicidal effect (herbicidal rate), Echinochloa crus-galli” value was 90%.
With CCC(C)n1oc(=O)c(Cc2ccccc2N(S(C)(=O)=O)S(=O)(=O)C(F)(F)F)c1C (centres unmarked) [Compound 1-890] the “herbicidal effect (herbicidal rate), Echinochloa crus-galli” value was 90%.

Source: US11109593B2, “Isoxazolin-5-one derivative and herbicide containing same as active ingredient” (HOKKO CHEMICAL INDUSTRY CO., LTD., priority 2017, dated 2021)
